Measured values taken from patent US20110182860A1 (priority 2009, published 2011).
Marks after values point to notes of the source that are not given here.

Test system: sheath blight caused by Rhizoctonia solani
Assay: Rice sheath blight field experiment (Lujiang county of Anhui province)
Assay type: in vivo
Description: Rice the most important crop in China, and the sheath blight caused by Rhizoctonia solani is one of the most serious diseases in rice.

OCC1=C[C@@H](N[C@H]2C[C@H](CO)[C@@H](O[C@H]3O[C@@H](CO)[C@H](O)[C@@H](O)[C@@H]3O)[C@H](O)[C@H]2O)[C@H](O)[C@@H](O)[C@@H]1O [Jinggangmycin (20%), Jinggangmycin]
Control efficacy: 69.81% | Disease severity, Means ± S.D: 26.51 ± 0.91^b % | Disease severity, I (replicate I): 27.43% | Disease severity, II (replicate II): 26.52% | Disease severity, III (replicate III): 25.60%
